Tests used:
mouse TAAR1 = mouse TAAR1 (Mus musculus (Mouse), UniProt Q923Y8); experiment: Radioligand binding assay on mouse TAAR1; details: for Ki: mouse TAAR1 (first value of the cell), membranes of HEK-293 cells stably expressing mouse TAAR1, read-out: Ki (μM) mouse/rat
rat TAAR1 = rat TAAR1 (Rattus norvegicus (Rat), UniProt Q923Y9); experiment: Radioligand binding assay on rat TAAR1; details: for Ki: rat TAAR1 (second value of the cell), membranes of HEK-293 cells stably expressing rat TAAR1, read-out: Ki (μM) mouse/rat
Summary of the method: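 Membranes from HEK293 cells stably expressing rat TAAR1 were incubated 1 h at 4 °C, in duplicate, with the tritiated oxazol-2-ylamine radioligand added at 3.3×Kd (Kd set per membrane batch by saturation). Buffer was 20 mM HEPES-NaOH pH 7.4, 10 mM MgCl2, 2 mM CaCl2; filtration and scintillation counting followed. […]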

Chain of rat TAAR1 (Q923Y9 whole entry): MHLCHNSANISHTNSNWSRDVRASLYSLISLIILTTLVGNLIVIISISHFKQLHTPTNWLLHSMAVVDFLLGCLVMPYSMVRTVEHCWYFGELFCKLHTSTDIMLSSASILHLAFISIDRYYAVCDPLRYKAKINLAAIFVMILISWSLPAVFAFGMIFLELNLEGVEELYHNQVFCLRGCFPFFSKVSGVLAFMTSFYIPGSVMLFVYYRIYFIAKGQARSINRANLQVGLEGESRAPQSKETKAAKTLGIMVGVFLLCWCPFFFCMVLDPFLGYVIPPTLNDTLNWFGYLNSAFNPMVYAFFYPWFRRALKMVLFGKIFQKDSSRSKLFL
Chain of mouse TAAR1 (Q923Y8 whole entry): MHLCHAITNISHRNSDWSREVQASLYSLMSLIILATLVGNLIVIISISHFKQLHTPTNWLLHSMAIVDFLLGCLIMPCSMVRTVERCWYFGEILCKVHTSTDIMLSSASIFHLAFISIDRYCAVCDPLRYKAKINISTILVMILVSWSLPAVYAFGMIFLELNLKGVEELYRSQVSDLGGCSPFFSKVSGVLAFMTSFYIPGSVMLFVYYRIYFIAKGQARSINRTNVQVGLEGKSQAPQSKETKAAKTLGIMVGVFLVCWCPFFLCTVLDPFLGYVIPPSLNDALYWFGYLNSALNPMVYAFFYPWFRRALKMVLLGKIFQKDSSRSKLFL

SMILES	Ki (mouse TAAR1) [µM]	Ki (rat TAAR1) [µM]	Kd (mouse TAAR1; mouse TAAR1 membranes, saturation curve, read-out: dissociation constant (Kd) of the TAAR1 radioligand) [µM]	Kd (rat TAAR1; rat TAAR1 membranes, saturation curve, read-out: dissociation constant (Kd) of the TAAR1 radioligand) [µM]
O=C(Nc1ccc(C[C@]23CN[C@H](CO2)C3)cc1)Nc1ccccc1Cl [Example 9, 1-(2-Chlorophenyl)-3-[4-[[(1S,4S)-5-oxa-2-azabicyclo[2.2.1]heptan-4-yl]methyl]phenyl]urea]	1.63	0.53		
CCOc1ccc(C(=O)Nc2ccc(C[C@]34CN[C@H](CO3)C4)cc2)cn1 [Example 26, 6-Ethoxy-N-[4-[[(1S,4S)-5-oxa-2-azabicyclo[2.2.1]heptan-4-yl]methyl]phenyl]pyridine-3-carboxamide]	1.14	0.441		
O=C(Nc1ccc(Cl)cc1)Nc1ccc(C[C@@]23CN[C@@H](CO2)C3)cc1 [Example 23, 1-(4-Chlorophenyl)-3-[4-[[(1R,4R)-5-oxa-2-azabicyclo[2.2.1]heptan-4-yl]methyl]phenyl]urea]	0.0137	0.0375		
O=C(Nc1ccc(C23CCC(CO2)NC3)cc1)c1ccc(OCC(F)(F)F)nc1 (racemic) [Example 13, (RS)—N-[4-(5-Oxa-2-azabicyclo[2.2.2]octan-4-yl)phenyl]-6-(2,2,2-trifluoroethoxy)pyridine-3-carboxamide]	0.0304	0.624		
O=C(Nc1ccc(Cl)cc1)Nc1ccc(C[C@]23CN[C@H](CO2)C3)cc1 [Example 1, 1-(4-Chlorophenyl)-3-[4-[[(1S,4S)-5-oxa-2-azabicyclo[2.2.1]heptan-4-yl]methyl]phenyl]urea]	1.82	1150		
FC(F)(F)c1nccc(Nc2ccc([C@]34CN[C@H](CO3)C4)cc2)n1 [Example 62, N-[4-[(1S,4R)-5-Oxa-2-azabicyclo[2.2.1]heptan-4-yl]phenyl]-2-(trifluoromethyl)pyrimidin-4-amine]	0.144	0.233		
O=C(Nc1ccc(C23CCC(CO2)NC3)cc1)c1cnc(C2CC2)nc1 (racemic) [Example 14, (RS)-2-Cyclopropyl-N-[4-(5-oxa-2-azabicyclo[2.2.2]octan-4-yl)phenyl]pyrimidine-5-carboxamide]	0.136	> 10		

Continued, values first:

Ki (mouse TAAR1) [µM]	Ki (rat TAAR1) [µM]	Kd (mouse TAAR1; mouse TAAR1 membranes, saturation curve, read-out: dissociation constant (Kd) of the TAAR1 radioligand) [µM]	Kd (rat TAAR1; rat TAAR1 membranes, saturation curve, read-out: dissociation constant (Kd) of the TAAR1 radioligand) [µM]	SMILES
		~0.0007	~0.0023	CCN(C[C@H]1COC(N)=N1)c1ccccc1 [^3[H]-(S)-4-[(ethyl-phenyl-amino)-methyl]-4,5-dihydro-oxazol-2-ylamine, reference compound]
0.946	0.163			FC(F)(F)c1ccc(Nc2ccc(C[C@]34CN[C@H](CO3)C4)cc2)nc1 [Example 31, N-[4-[[(1S,4S)-5-Oxa-2-azabicyclo[2.2.1]heptan-4-yl]methyl]phenyl]-5-(trifluoromethyl)pyridin-2-amine]
0.0471	1.97			FC(F)(F)c1nccc(Nc2ccc(C34CCC(CO3)NC4)cc2)n1 (stereo not drawn) [Example 36, N-[4-(5-Oxa-2-azabicyclo[2.2.2]octan-4-yl)phenyl]-2-(trifluoromethyl)pyrimidin-4-amine]
0.0104	0.0104			O=C(Nc1ccc(C[C@@]23CN[C@@H](CO2)C3)cc1)c1ccc(OCC(F)(F)F)nc1 [Example 47, N-[4-[[(1R,4R)-5-Oxa-2-azabicyclo[2.2.1]heptan-4-yl]methyl]phenyl]-6-(2,2,2-trifluoroethoxy)pyridine-3-carboxamide]
0.0142	0.448			CCOc1ccc(C(=O)Nc2ccc(C[C@@]34CN[C@@H](CO3)C4)cc2)cn1 [Example 46, 6-Ethoxy-N-[4-[[(1R,4R)-5-oxa-2-azabicyclo[2.2.1]heptan-4-yl]methyl]phenyl]pyridine-3-carboxamide]
